IC50 data for two compounds are collected here from patent US20070293486A1, “Alpha-Keto Carbonyl Calpain Inhibitors” (SANTHERA PHARMACEUTICALS (SCHWEIZ) AG, priority 2004, published 2007).

Structures are written as SMILES.

In assay [1] the target is T1, human μ-calpain (Homo sapiens, UniProt P07384).
T1 construct: purchased Calbiochem
T1 sequence (P07384 1-714): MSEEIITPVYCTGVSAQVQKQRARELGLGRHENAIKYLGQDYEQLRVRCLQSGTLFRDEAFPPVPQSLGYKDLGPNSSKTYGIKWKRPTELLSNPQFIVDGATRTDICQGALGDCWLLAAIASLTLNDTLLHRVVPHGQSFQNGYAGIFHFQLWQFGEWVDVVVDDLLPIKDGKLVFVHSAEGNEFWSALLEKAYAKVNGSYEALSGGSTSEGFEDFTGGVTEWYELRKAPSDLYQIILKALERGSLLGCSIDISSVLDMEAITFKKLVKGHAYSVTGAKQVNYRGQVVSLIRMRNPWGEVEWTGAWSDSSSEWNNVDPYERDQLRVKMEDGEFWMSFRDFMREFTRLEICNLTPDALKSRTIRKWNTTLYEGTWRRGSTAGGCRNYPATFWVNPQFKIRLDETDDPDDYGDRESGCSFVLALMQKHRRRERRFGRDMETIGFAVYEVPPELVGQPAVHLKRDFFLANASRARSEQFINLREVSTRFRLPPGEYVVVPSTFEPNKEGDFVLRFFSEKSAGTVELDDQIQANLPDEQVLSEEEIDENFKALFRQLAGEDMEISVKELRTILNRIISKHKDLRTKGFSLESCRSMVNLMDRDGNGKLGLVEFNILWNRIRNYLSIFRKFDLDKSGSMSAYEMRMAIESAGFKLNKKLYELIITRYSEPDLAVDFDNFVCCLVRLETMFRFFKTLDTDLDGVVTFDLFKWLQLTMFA
T1 sequence (P04632 1-268 partner): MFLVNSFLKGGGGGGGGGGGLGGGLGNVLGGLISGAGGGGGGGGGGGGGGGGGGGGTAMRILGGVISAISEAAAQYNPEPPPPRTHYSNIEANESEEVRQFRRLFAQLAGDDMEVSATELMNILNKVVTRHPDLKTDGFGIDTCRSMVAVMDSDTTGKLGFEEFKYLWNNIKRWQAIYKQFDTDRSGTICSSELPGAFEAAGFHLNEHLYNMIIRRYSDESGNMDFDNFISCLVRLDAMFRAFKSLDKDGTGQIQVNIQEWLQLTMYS
Put plainly: Enzymatic Calpain Inhibition Assay. The assay is classed as biochemical. Particulars: enzymatic calpain I inhibition; read-out: Calp I IC50. The method, then:
The Ki value was also determined in some cases. These criteria were used to measure the inhibitory effect of the compounds (I) on calpain I, calpain II and cathepsin B.
The inhibitory properties of calpain inhibitors are tested in 100 μl of a buffer containing 100 mM imidazole pH 7.5, 5 mM L-Cystein-HCl, 5 mM CaCl2, 250 μM of the calpain fluorogenic substrate Suc-Leu-Tyr-AMC (Sigma) (Sasaki et al., J. Biol. Chem., 1984, 259, 12489-12949) dissolved in 2.5 μl DMSO and 0.5 μg of human μ-calpain (Calbiochem). The inhibitors dissolved in 1 μl DMSO are added to the reaction buffer. The fluorescence of the cleavage product 7-amino-4-methylcoumarin (AMC) is followed in a SPECTRAmax GEMINI XS (Molecular Device) fluorimeter at λex=360 nm and λem=440 nm at 30° C. during 30 min at intervals of 30 sec in 96-well plates (Greiner). The initial reaction velocity at different inhibitor concentrations is plotted against the inhibitor concentration and the IC50 values determined graphically.

The test system of assay [2] is cellular calpains in C2C12 myoblasts. Description: Calpain Inhibition Assay in C2C12 Myoblasts. Particulars: read-out: Calp I IC50 Myoblast. Format: cell-based. The protocol: This assay is aimed at monitoring the ability of the substance to inhibit cellular calpains. C2C12 myoblasts are grown in 96-well plates in growth medium (DMEM, 20% foetal calf serum) until they reach confluency. The growth medium is then replaced by fusion medium (DMEM, 5% horse serum). 24 hours later the fusion medium is replaced by fusion medium containing the test substances dissolved in 1 μl DMSO. After 2 hours of incubation at 37° C. the cells are loaded with the calpain fluorogenic substrate Suc-Leu-Tyr-AMC at 400 μM in 50 μl of a reaction buffer containing 135 mM NaCl; 5 mM KCl; 4 mM CaCl2; 1 mM MgCl2; 10 mM Glucose; 10 mM HEPES pH 7.25 for 20 min at room temperature. The calcium influx, necessary to activate the cellular calpains, is evoked by the addition of 50 μl reaction buffer containing 20 μM of the calcium ionophore Br-A-23187 (Molecular Probes). The fluorescence of the cleavage product AMC is measured as described above during 60 min at 37° C. at intervals of 1 min. The IC50 values are determined as described above. Comparison of the IC50 determined in the enzymatic calpain inhibition assay to the IC50 determined in the C2C12 myoblasts calpain inhibition assay, allows to evaluate the cellular uptake or the membrane permeability of the substance.

For the compound `CCNC(=O)C(=O)C(Cc1ccc(OC)cc1)NC(=O)C(CC(C)C)NC(=O)C(Cc1cccc2ccccc12)NC(=O)CCCCC1CCSS1` (stereo not shown) [Example 637], the IC50 is 30 nM in assay [1] and 40 nM in assay [2].

Regarding `CCNC(=O)C(=O)[C@H](Cc1ccc(Cl)cc1)NC(=O)[C@@H](NC(=O)[C@H](Cc1ccccc1)NC(=O)CCCCC1CCS[S+]1[O-])C(C)C` (stereo partly shown) [Example 2], the IC50 turned out to be 38 nM in assay [1] and 210 nM in assay [2].

As a reminder, the IC50 is the concentration that gives 50% inhibition.
